In US7902354B2, “Lapachone compounds and methods of use thereof” (ArQule, Inc., priority 2006, dated 2011):

Experiments:
[1] = system: DLD-1 human colon carcinoma cells; test: MTS cell viability assay, DLD-1 human colon carcinoma cells; assay type: cell-based; conditions: DLD-1, 4 h compound incubation, MTS, read-out: IC50 Values, Cancerous Cells, Colon DLD-1
[2] = system: A549 human lung carcinoma cells; test: MTS cell viability assay, A549 human lung carcinoma cells; assay type: cell-based; conditions: A549, 4 h compound incubation, MTS, read-out: IC50 Values, Cancerous Cells, Lung A549
[3] = system: DU-145 human prostate carcinoma cells; test: MTS cell viability assay, DU-145 human prostate carcinoma cells; assay type: cell-based; conditions: DU-145, 4 h compound incubation, MTS, read-out: IC50 Values, Cancerous Cells, Prostate DU-145
[4] = system: K-562 human leukemia cells; test: MTS cell viability assay, K-562 human leukemia cells; assay type: cell-based; conditions: K562, K-562, 4 h compound incubation, MTS, read-out: IC50 Values, Cancerous Cells, Leukemia K-562
[5] = system: E2F-1; test: E2F-1 induction in HT-29 cells; assay type: cell-based, human
From the text: Another effect of the compounds of the present invention is the induction or elevation of activity (e.g. elevation of the level) of one or more checkpoint molecules (i.e., a member of the E2F family of transcription factors). Studies have shown that β-lapachone induces activation of E2F1 checkpoint pathway in nuclei of cancer cells but not in normal cells, resulting in the arrest of cancer cells in G1 and/or S phase. Several compounds of the present invention were effective in activating the E2F1 checkpoint pathway (e.g. elevation of E2F1 levels), thus causing G1 and/or S phase arrest. Furthermore, the compounds of the present invention have no significant toxic effects on normal cells (See. Table 1). The assays of the present invention as shown in Table 1 and methods of measuring induction of E2F1 activity and elevation of E2F1 levels can be carried out following the descriptions found in Li et al., (2003) Proc Natl Acad Sci USA. 100(5): 2674-8 and U.S. Patent Application Publication No. 2002/0169135, both incorporated herein by reference.

[6] = system: HT-29 human colon carcinoma cells; test: MTS cell viability assay, HT-29 human colon carcinoma cells; assay type: cell-based; conditions: 4 h compound incubation, read-out: IC50 Values, Cancerous Cells, Colon HT-29
[7] = system: NCM-460 normal colon epithelial cells; test: MTS cell viability assay, NCM-460 normal colon epithelial cells; assay type: cell-based; conditions: for IC50: Homo sapiens, NCM460, NCM-460, 4 h compound incubation, MTS, read-out: IC50 Values, Normal Cells, Colon NCM-460; for Fold Selectivity (NCM-460/DLD1): ratio of IC50 NCM-460 / DLD1
[8] = system: PACA-2 human pancreatic carcinoma cells; test: MTS cell viability assay, PACA-2 human pancreatic carcinoma cells; assay type: cell-based; conditions: PACA-2, 4 h compound incubation, MTS, read-out: IC50 Values, Cancerous Cells, Pancreas PACA-2
[9] = system: HT29 human colon cancer xenograft; test: Colon cancer xenograft model (HT29) in athymic nude mice; assay type: in vivo
Procedure: Tumors were allowed to grow to approximately 70 mm^3 in size. Animals were randomized into two groups of eight animals per group. […] Drug or vehicle was administered every Monday, Wednesday and Friday for a total of nine doses (qMWFx3). Tumor size was evaluated periodically during the study. For each subject, tumor volume was calculated using the formula (L×W^2)/2 where L and W were the length and width of the tumor, respectively. The arithmetic mean tumor volume was calculated for each treatment group +/− standard error of the mean (SEM). […] Tumors were allowed to grow to approximately 90 mm^3 in size. Animals were randomized into three groups of eight animals per group. […] Drug or vehicle was administered every Monday, Wednesday and Friday for a total of nine doses (qMWFx3). Tumor size was evaluated periodically during the study. For each subject, tumor volume was calculated using the formula (L×W^2)/2 where L and W were the length and width of the tumor, respectively. The arithmetic mean tumor volume was calculated for each treatment group +/− standard error of the mean (SEM). […] Tumors were allowed to grow to approximately 60 mm^3 in size. Animals were randomized into two groups of eight animals per group. At day five post injection, mice with established tumors were treated intraperitoneally with either Compound 182 (40 mg/kg) or vehicle control. Drug or vehicle was administered every Monday, Wednesday and Friday for a total of nine doses (qMWFx3). Tumor size was evaluated periodically during the study. For each subject, tumor volume was calculated using the formula (L×W^2)/2 where L and W were the length and width of the tumor, respectively. The arithmetic mean tumor volume was calculated for each treatment group +/− standard error of the mean (SEM). […] Tumors were allowed to grow to approximately 50 mm^3 in size. Animals were randomized into three groups of five animals per group. At day eight post injection, mice with established tumors were treated intraperitoneally with either Compound 180 (40 mg/kg) or Compound 125 (40 mg/kg) and vehicle control. Drug or vehicle was administered every Monday, Wednesday and Friday for a total of twelve doses (qMWFx4). Tumor size was evaluated periodically during the study. For each subject, tumor volume was calculated using the formula (L×W^2)/2 where L and W were the length and width of the tumor, respectively. The arithmetic mean tumor volume was calculated for each treatment group +/−standard error of the mean (SEM).

[10] = system: human cancer cell lines; conditions: single agent; read-out: antineoplastic activity against human cancer cell lines (IC50); cited from earlier work
[11] = system: normal fresh or proliferating human PBMC; conditions: cited from earlier work
[12] = 40 mg/kg intraperitoneally qMWFx4, HT29 xenograft
[13] = 32 mg/kg intraperitoneally qMWFx3, HT29 xenograft

IC50 [1]	IC50 [2]	IC50 [3]	IC50 [4]	IC50 [6]	IC50 [8]	Structure (SMILES)	E2F-1 Induction (HT-29) [5]	IC50 [7]	Fold Selectivity (NCM-460/DLD1) [7]	% T/C [9, 12]	reduction of mean tumor volume compared to vehicle treated control [9, 12]	IC50 [10]	cytotoxic effects on normal fresh or proliferating human PBMC [11]	% T/C [9, 13]	reduction of mean tumor volume compared to vehicle treated control [9, 13]
1.71 µM	9.57 µM	5.06 µM	3.74 µM	4.95 µM	2.5 µM	O=C1C(=O)c2ccccc2C2=C1SCC1(CCN(Cc3ccc(F)cc3)CC1)O2 [Compound 125, 1′-(4-fluorobenzyl)spiro[naphtho[1,2-b][1,4]oxathiine-2,4′-piperidine]-5,6-dione]	Yes	9.75 µM	5.7	46.2%	57.8%				
						CC1(C)CCC2=C(O1)c1ccccc1C(=O)C2=O [β-lapachone, 3,4-dihydro-2,2-dimethyl-2H-naphtho[1,2-b]pyran-5,6-dione]						1 to 10 µM	No cytotoxic effects		
1.5 µM	5.5 µM	2.1 µM	2.3 µM	6.5 µM	1.5 µM	O=C1C(=O)c2ccccc2C2=C1SCC1(CCN(C[C@H](O)Cc3ccccc3)CC1)O2 [Compound 186, 1′-[(2R)-2-hydroxy-3-phenylpropyl]spiro[naphtho[1,2-b][1,4]oxathiine-2,4′-piperidine]-5,6-dione]	YES	6.8 µM	4.7					50%	50%
2.58 µM	5.85 µM	1.65 µM	5.34 µM	3.67 µM	1.71 µM	CC(C)(C)c1ccc(OC[C@@H](O)CN2CCC3(CC2)CSC2=C(O3)c3ccccc3C(=O)C2=O)cc1 [Compound 184, 1′-[(2S)-3-(4-tert-butylphenoxy)-2-hydroxypropyl]spiro[naphtho[1,2-b][1,4]oxathiine-2,4′-piperidine]-5,6-dione]	Yes	27.8 µM	10.8					29.8%	70.2%
